Columns and labels:
Assay in all cases: KINOMEscan competition binding
Conditions in all cases: compound 10.0 µM
ABL1 (human) = ABL1 (human) (UniProt P00519)
ABL2 (human) = ABL2 (human) (UniProt P42684)
ADCK4 (human) = ADCK4 (human) (UniProt Q96D53)
AKT2 (human) = AKT2 (human) (UniProt P31751)
CAMK1 (human) = CAMK1 (human) (UniProt Q14012)
CAMK1D (human) = CAMK1D (human) (UniProt Q8IU85)
CAMK2A (human) = CAMK2A (human) (UniProt Q9UQM7)
CDK11B (human) = CDK11B (human) (UniProt P21127)
CDK8 (human) = CDK8 (human) (UniProt P49336)
CHEK2 (human) = CHEK2 (human) (UniProt O96017)
Chain of CHEK2 (human) (O96017 whole entry, looked up): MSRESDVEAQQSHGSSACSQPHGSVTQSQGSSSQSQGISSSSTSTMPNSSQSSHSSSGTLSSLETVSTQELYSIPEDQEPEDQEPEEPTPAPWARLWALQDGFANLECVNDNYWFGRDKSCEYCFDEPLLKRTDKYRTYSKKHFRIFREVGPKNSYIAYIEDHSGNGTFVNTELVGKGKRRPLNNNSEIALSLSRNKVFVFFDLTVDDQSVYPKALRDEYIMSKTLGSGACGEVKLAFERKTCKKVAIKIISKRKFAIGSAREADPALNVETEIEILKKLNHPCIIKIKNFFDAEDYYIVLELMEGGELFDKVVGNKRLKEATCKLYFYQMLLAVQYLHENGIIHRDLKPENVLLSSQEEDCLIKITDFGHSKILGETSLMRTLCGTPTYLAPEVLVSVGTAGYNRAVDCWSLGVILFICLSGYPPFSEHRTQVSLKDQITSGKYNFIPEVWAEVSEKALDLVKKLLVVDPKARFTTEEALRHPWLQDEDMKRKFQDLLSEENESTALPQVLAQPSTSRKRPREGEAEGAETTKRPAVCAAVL

CSK (human) = CSK (human) (UniProt P41240)
CSNK1A1L (human) = CSNK1A1L (human) (UniProt Q8N752)
DCLK1 (human) = DCLK1 (human) (UniProt O15075)
EGFR (human) = EGFR (human) (UniProt P00533)
[1] = test system: EGFR (human), P00533 [L861Q]
[2] = test system: EGFR (human), P00533 [P753S; 747-752 del]
EIF2AK2 (human) = EIF2AK2 (human) (UniProt P19525)
EPHA5 (human) = EPHA5 (human) (UniProt P54756)
EPHA6 (human) = EPHA6 (human) (UniProt Q9UF33)
ERBB2 (human) = ERBB2 (human) (UniProt P04626)
FYN (human) = FYN (human) (UniProt P06241)
[3] = biological target: JAK1 JH1 catalytic (human) (UniProt P23458)
LATS1 (human) = LATS1 (human) (UniProt O95835)
LTK (human) = LTK (human) (UniProt P29376)
MAP4K5 (human) = MAP4K5 (human) (UniProt Q9Y4K4)
MAPK6 (human) = MAPK6 (human) (UniProt Q16659)
MARK1 (human) = MARK1 (human) (UniProt Q9P0L2)
MST1R (human) = MST1R (human) (UniProt Q04912)
NEK7 (human) = NEK7 (human) (UniProt Q8TDX7)
PAK3 (human) = PAK3 (human) (UniProt O75914)
PAK4 (human) = PAK4 (human) (UniProt O96013)
PKN1 (human) = PKN1 (human) (UniProt Q16512)
PLK1 (human) = PLK1 (human) (UniProt P53350)
PTK2B (human) = PTK2B (human) (UniProt Q14289)
RPS6KA1 KD1 (human) = RPS6KA1 KD1 (human) (UniProt Q15418)
Chain of RPS6KA1 KD1 (human) (Q15418 whole entry, looked up): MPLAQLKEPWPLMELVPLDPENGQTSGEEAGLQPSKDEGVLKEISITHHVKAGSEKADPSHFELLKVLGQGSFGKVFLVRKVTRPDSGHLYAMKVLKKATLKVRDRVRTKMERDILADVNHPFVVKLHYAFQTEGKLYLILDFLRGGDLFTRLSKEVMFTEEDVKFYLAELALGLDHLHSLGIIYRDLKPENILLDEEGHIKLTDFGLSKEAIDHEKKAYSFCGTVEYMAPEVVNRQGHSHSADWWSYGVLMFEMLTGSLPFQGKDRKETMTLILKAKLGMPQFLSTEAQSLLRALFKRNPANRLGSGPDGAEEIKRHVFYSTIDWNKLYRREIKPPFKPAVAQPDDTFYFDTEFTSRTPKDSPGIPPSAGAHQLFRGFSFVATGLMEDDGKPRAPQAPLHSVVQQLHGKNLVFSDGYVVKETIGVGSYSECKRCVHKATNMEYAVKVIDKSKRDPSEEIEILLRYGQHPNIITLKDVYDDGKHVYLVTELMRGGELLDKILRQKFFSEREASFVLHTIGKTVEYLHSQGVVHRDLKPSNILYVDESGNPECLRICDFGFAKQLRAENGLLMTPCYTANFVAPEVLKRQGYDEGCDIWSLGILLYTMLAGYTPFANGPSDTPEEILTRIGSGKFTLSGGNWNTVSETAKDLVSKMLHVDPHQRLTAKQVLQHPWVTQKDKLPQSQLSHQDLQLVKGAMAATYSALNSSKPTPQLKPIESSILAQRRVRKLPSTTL

RPS6KA4 KD1 (human) = RPS6KA4 KD1 (human) (UniProt O75676)
Chain of RPS6KA4 KD1 (human) (O75676 whole entry, looked up): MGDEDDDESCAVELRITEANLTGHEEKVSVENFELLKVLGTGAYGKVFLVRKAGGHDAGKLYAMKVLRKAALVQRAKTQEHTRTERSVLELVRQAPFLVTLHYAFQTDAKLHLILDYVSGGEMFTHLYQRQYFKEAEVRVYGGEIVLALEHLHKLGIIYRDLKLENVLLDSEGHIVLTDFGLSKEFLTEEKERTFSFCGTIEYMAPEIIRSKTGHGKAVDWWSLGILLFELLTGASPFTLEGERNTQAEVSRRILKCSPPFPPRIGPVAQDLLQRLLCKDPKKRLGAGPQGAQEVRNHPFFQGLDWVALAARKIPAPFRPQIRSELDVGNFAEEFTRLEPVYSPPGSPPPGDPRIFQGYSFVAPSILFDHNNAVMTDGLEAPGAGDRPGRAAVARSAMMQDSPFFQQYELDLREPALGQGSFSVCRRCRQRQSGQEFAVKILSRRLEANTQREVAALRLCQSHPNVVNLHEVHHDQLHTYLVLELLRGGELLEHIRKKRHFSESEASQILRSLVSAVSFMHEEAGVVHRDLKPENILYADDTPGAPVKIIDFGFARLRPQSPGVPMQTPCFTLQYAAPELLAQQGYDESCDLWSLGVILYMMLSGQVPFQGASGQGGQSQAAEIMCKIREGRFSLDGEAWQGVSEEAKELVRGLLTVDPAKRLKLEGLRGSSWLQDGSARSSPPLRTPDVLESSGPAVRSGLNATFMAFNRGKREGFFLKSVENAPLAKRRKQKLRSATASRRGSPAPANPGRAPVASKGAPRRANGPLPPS

SRPK1 (human) = SRPK1 (human) (UniProt Q96SB4)
STK25 (human) = STK25 (human) (UniProt O00506)
Chain of STK25 (human) (O00506 whole entry, looked up): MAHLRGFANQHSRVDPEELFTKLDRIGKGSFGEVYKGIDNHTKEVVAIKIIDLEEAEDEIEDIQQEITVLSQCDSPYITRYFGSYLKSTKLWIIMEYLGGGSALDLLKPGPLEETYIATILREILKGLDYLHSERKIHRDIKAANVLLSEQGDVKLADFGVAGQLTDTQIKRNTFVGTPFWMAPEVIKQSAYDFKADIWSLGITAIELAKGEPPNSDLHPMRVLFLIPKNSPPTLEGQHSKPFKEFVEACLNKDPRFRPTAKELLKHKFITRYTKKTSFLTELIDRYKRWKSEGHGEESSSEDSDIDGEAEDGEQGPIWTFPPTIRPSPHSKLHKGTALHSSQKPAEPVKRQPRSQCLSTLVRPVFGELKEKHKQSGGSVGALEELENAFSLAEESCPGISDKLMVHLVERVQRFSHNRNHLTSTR

TGFBR1 (human) = TGFBR1 (human) (UniProt P36897)
TNNI3K (human) = TNNI3K (human) (UniProt Q59H18)
Chain of TNNI3K (human) (Q59H18 whole entry, looked up): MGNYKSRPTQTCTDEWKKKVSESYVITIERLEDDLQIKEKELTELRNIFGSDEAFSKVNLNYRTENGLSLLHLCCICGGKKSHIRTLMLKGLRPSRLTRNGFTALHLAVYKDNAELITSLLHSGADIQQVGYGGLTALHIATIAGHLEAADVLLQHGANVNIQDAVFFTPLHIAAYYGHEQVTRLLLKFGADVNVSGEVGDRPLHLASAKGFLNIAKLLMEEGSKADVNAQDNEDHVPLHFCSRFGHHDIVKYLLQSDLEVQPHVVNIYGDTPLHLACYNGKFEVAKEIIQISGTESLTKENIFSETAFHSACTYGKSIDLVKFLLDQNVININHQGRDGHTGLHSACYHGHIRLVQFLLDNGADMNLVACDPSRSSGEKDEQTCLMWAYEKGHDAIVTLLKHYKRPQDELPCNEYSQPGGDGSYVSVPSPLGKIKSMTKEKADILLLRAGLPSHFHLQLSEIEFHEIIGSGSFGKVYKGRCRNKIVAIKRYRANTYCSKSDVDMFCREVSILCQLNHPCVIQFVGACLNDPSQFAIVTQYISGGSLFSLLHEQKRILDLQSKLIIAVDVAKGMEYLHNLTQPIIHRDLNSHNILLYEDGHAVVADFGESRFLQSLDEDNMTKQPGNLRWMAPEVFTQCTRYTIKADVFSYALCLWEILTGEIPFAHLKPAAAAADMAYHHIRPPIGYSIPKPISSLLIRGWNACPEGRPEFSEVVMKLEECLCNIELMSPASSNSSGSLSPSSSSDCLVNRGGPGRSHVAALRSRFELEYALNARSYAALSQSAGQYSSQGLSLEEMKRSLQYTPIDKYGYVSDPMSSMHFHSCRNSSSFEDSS

WEE1 (human) = WEE1 (human) (UniProt P30291)
YES1 (human) = YES1 (human) (UniProt P07947)

Chain of ABL2 (human) (P42684 whole entry, looked up): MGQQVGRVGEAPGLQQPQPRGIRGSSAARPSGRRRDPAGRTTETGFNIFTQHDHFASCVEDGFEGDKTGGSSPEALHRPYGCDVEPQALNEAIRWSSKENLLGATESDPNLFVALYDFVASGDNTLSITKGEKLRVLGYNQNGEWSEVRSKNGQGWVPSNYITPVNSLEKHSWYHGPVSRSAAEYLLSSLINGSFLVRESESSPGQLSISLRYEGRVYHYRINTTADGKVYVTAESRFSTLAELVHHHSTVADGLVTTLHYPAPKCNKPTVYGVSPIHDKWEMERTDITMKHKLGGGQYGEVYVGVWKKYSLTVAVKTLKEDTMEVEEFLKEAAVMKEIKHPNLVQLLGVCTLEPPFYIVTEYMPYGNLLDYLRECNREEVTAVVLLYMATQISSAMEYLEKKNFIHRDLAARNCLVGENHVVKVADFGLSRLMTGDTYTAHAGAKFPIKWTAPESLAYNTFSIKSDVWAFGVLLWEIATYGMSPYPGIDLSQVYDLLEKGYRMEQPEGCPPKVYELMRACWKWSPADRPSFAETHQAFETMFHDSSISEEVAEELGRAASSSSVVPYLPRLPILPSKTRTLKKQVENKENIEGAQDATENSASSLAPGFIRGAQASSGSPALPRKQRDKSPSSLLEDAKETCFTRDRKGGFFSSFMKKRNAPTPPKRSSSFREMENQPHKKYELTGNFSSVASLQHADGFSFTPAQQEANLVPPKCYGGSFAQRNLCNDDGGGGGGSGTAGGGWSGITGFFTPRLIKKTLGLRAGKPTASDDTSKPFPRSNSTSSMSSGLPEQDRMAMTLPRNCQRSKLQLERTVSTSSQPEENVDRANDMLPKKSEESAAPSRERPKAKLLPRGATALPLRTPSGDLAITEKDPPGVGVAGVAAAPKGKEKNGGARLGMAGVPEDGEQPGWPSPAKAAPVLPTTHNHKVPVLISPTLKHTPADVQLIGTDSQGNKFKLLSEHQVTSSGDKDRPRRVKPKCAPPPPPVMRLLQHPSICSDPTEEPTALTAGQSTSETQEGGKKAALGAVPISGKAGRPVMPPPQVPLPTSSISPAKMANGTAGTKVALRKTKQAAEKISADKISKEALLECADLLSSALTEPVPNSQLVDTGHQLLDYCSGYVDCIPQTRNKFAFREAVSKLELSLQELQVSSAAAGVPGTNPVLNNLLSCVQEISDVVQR
Chain of ADCK4 (human) (Q96D53 whole entry, looked up): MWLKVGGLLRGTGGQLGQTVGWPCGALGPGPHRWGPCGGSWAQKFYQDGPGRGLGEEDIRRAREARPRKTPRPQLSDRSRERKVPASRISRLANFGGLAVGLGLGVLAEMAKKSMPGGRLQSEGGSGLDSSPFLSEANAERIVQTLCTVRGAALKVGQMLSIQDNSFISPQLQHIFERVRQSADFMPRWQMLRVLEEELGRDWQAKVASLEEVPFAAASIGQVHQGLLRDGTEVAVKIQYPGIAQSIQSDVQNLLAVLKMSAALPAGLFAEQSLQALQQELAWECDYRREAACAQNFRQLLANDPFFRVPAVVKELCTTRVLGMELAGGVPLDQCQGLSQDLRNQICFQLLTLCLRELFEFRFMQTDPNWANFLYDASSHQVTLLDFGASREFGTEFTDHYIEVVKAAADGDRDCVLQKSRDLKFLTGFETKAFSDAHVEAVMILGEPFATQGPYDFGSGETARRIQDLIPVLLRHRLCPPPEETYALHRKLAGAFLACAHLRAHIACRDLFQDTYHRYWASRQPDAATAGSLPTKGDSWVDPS

In the case of CN1CCN(c2ccc(C(=O)Nc3ncc4c(n3)N(C)c3ccccc3C(=O)N4C)cc2)CC1, the kinase still bound, per cent of control (ABL1 (human)) is reported as 85%, the kinase still bound, per cent of control (ABL2 (human)) is reported as 100% and the kinase still bound, per cent of control (ADCK4 (human)) is reported as 100%. The kinase still bound, per cent of control (AKT2 (human)) was 100%, the kinase still bound, per cent of control (CAMK1 (human)) was 100% and the kinase still bound, per cent of control (CAMK1D (human)) was 100%. For the same compound, the kinase still bound, per cent of control (CAMK2A (human)) was 100%, the kinase still bound, per cent of control (CDK11B (human)) was 100% and the kinase still bound, per cent of control (CDK8 (human)) was 100%. For the same compound, the kinase still bound, per cent of control (CHEK2 (human)) was 100%, the kinase still bound, per cent of control (CSK (human)) was 100% and the kinase still bound, per cent of control (CSNK1A1L (human)) was 77%. It also gave a kinase still bound, per cent of control (DCLK1 (human)) of 24%, a kinase still bound, per cent of control (EGFR (human)) of 100% and a kinase still bound, per cent of control [1] of 88%. The kinase still bound, per cent of control [2] was 100%, the kinase still bound, per cent of control (EIF2AK2 (human)) was 100% and the kinase still bound, per cent of control (EPHA5 (human)) was 100%. For the same compound, the kinase still bound, per cent of control (EPHA6 (human)) was 100%, the kinase still bound, per cent of control (ERBB2 (human)) was 88% and the kinase still bound, per cent of control (FYN (human)) was 95%. The kinase still bound, per cent of control [3] was 100%, the kinase still bound, per cent of control (LATS1 (human)) was 88% and the kinase still bound, per cent of control (LTK (human)) was 86%. For the same compound, the kinase still bound, per cent of control (MAP4K5 (human)) was 100%, the kinase still bound, per cent of control (MAPK6 (human)) was 70% and the kinase still bound, per cent of control (MARK1 (human)) was 96%. The kinase still bound, per cent of control (MST1R (human)) was 93%, the kinase still bound, per cent of control (NEK7 (human)) was 100% and the kinase still bound, per cent of control (PAK3 (human)) was 79%. For the same compound, the kinase still bound, per cent of control (PAK4 (human)) was 100%, the kinase still bound, per cent of control (PKN1 (human)) was 100% and the kinase still bound, per cent of control (PLK1 (human)) was 100%. The kinase still bound, per cent of control (PTK2B (human)) was 100%, the kinase still bound, per cent of control (RPS6KA1 KD1 (human)) was 93% and the kinase still bound, per cent of control (RPS6KA4 KD1 (human)) was 100%. It also gave a kinase still bound, per cent of control (SRPK1 (human)) of 100%, a kinase still bound, per cent of control (STK25 (human)) of 100% and a kinase still bound, per cent of control (TGFBR1 (human)) of 100%. For the same compound, the kinase still bound, per cent of control (TNNI3K (human)) was 100%, the kinase still bound, per cent of control (WEE1 (human)) was 100% and the kinase still bound, per cent of control (YES1 (human)) was 96%.
CN1C(=O)c2ccccc2N(C)c2nc(Nc3ccc(N4CCC(O)CC4)cc3)ncc21 gave a kinase still bound, per cent of control (ABL1 (human)) of 3.2%, a kinase still bound, per cent of control (ABL2 (human)) of 33% and a kinase still bound, per cent of control (ADCK4 (human)) of 78%. For the same compound, the kinase still bound, per cent of control (AKT2 (human)) was 100%, the kinase still bound, per cent of control (CAMK1 (human)) was 100% and the kinase still bound, per cent of control (CAMK1D (human)) was 98%. It also gave a kinase still bound, per cent of control (CAMK2A (human)) of 86%, a kinase still bound, per cent of control (CDK11B (human)) of 100% and a kinase still bound, per cent of control (CDK8 (human)) of 100%. The kinase still bound, per cent of control (CHEK2 (human)) was 81%, the kinase still bound, per cent of control (CSK (human)) was 91% and the kinase still bound, per cent of control (CSNK1A1L (human)) was 98%. The kinase still bound, per cent of control (DCLK1 (human)) was 1.8%, the kinase still bound, per cent of control (EGFR (human)) was 100% and the kinase still bound, per cent of control [1] was 100%. For the same compound, the kinase still bound, per cent of control [2] was 100%, the kinase still bound, per cent of control (EIF2AK2 (human)) was 100% and the kinase still bound, per cent of control (EPHA5 (human)) was 100%. The kinase still bound, per cent of control (EPHA6 (human)) was 100%, the kinase still bound, per cent of control (ERBB2 (human)) was 99% and the kinase still bound, per cent of control (FYN (human)) was 35%. It also gave a kinase still bound, per cent of control [3] of 30%, a kinase still bound, per cent of control (LATS1 (human)) of 92% and a kinase still bound, per cent of control (LTK (human)) of 100%. The kinase still bound, per cent of control (MAP4K5 (human)) was 85%, the kinase still bound, per cent of control (MAPK6 (human)) was 97% and the kinase still bound, per cent of control (MARK1 (human)) was 59%. For the same compound, the kinase still bound, per cent of control (MST1R (human)) was 94%, the kinase still bound, per cent of control (NEK7 (human)) was 100% and the kinase still bound, per cent of control (PAK3 (human)) was 37%. The kinase still bound, per cent of control (PAK4 (human)) was 97%, the kinase still bound, per cent of control (PKN1 (human)) was 100% and the kinase still bound, per cent of control (PLK1 (human)) was 50%. The kinase still bound, per cent of control (PTK2B (human)) was 78%, the kinase still bound, per cent of control (RPS6KA1 KD1 (human)) was 66% and the kinase still bound, per cent of control (RPS6KA4 KD1 (human)) was 100%. The kinase still bound, per cent of control (SRPK1 (human)) was 100%, the kinase still bound, per cent of control (STK25 (human)) was 96% and the kinase still bound, per cent of control (TGFBR1 (human)) was 73%. It also gave a kinase still bound, per cent of control (TNNI3K (human)) of 100%, a kinase still bound, per cent of control (WEE1 (human)) of 100% and a kinase still bound, per cent of control (YES1 (human)) of 38%.

Reference: the kinase profiling compilation of Christmann-Franck et al. (2016)
